Data on 5 molecules can be found in US20090163461A1, “Ligand for Vesicular Acetylcholine Transporter” (priority 2005, published 2009).

Where two headings read alike, the source gives them in different places.

In one data set the target is T1, VAChT in the brain (Rattus norvegicus, UniProt Q62666).
T1 construct: from tissue; host or cells: brain of living rats, tissue counted or sectioned after killing
T1 sequence (Q62666 1-530): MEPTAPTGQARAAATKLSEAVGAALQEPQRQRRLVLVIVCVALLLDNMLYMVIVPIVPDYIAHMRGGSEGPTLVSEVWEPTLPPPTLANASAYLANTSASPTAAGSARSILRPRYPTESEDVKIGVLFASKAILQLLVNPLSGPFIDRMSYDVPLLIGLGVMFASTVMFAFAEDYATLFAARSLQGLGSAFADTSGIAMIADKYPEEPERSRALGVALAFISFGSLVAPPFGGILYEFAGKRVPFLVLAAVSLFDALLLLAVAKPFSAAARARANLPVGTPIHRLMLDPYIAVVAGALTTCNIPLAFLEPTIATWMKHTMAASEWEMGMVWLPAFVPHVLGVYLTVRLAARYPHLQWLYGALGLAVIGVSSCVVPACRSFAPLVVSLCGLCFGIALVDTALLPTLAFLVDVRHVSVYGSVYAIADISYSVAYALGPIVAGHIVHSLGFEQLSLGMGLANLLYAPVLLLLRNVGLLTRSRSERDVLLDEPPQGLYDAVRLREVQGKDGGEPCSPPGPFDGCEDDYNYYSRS
Put plainly: Inhibitory effects of non-radioactive ligands on cerebral distribution of (−)-[^11C]-o-methylvesamicol in rats. In kind it is in vivo. The settings on record: 30 minutes; for local accumulation of (−)-[^11C]-o-MeVES in the brain, effect of co-administered non-radioactive ligand: 500 nmol per kg i.v.; for Radioactivity level (% ID/g) Blood / Radioactivity level (% ID/g) Brain (other than above) / Radioactivity level (% ID/g) Cerebellum / Radioactivity level (% ID/g) Cerebral cortex / Radioactivity level (% ID/g) Hippocampus / Radioactivity level (% ID/g) Medulla oblongata / Radioactivity level (% ID/g) Striate body / Radioactivity level (% ID/g) Brain (whole): tracer (−)-[^11C]-o-MeVES 20 MBq i.v. together with ligand 500 nmol per kg, mean ± S.D. n = 4-6. On the procedure:
To the caudal vein of each rat, an injection (0.1 ml) containing 20 MBq of (−)-[^11C]-o-MeVES and 0.1 ml (equivalent to 500 nmol per kg body weight) of a DMSO solution containing each of the above-described non-radioactive ligands were administered together. Thirty minutes after the administration, the rats were killed by cervical dislocation, and blood was drawn from the heart using a syringe, after which the brain was extirpated from each rat. The extirpated brain was divided into the cerebral cortex, hippocampus, striate body, cerebellum, medulla oblongata, and other parts, and the radioactivity in each tissue was measured using a gamma counter. Each tissue was also weighed.
For control, an injection (0.1 ml) containing 20 MBq of (−)-[^11C]-o-MeVES and a ligand-free DMSO solution (0.1 ml) were administered to the caudal vein of each rat, and measurements were taken in the same manner as described above.

In data set [1] the target is T2, VAChT (Rattus norvegicus, UniProt Q62666).
T2 sequence (Q62666 1-530): T1 sequence (Q62666 1-530)
Put plainly: biochemical. Here is the method:
(§1) The affinity of (−)-o-MeVES for VAChT and sigma receptors (σ-1, σ-2) was examined by in vitro drug inhibition experiments.
(§2) First, the brain and liver were extirpated from a rat, a 0.32 M sucrose solution in an amount by weight 10 times the weight of each tissue was added, and each tissue was ground using a Teflon homogenizer. Next, the ground tissue solution was centrifuged at 1000 g for 10 minutes, and the precipitated fraction was removed. Furthermore, the supernatant was centrifuged at 55000 g for 60 minutes, and the precipitated tissue was added to, and suspended in, 50 mM Tris-HCl buffer solution/0.32 M sucrose solution (pH 7.8).
For each test compound, samples at 10 different concentrations (concentrations set at 10 levels in the range of 10^−5 M to 10^−10 M) were prepared.
For each sample, the RI (100 μl), sample (50 μl), 50 mM Tris-HCl buffer solution (pH 7.8) (100 μl), 2 μM DTG solution (50 μl) (200 nM as the final concentration), and, finally, the prepared rat cerebral membrane (500-900 μg (protein weight)/200 μl) was added to a test tube, and they were reacted at 37° C. for 60 minutes. The test tube was cooled with ice to stop the reaction, and the rat cerebral membrane was immediately adsorbed to a glass filter using a cell harvester. After the glass filter was washed with 50 mM Tris-HCl buffer solution (pH 7.8) (5 ml) three times, the rat cerebral membrane, together with the glass filter, was placed in a liquid scintillation vial, and a liquid scintillator was added, after which radioactivity was measured using a liquid scintillation counter.
(§3) Ki=IC50/(1+C/Kd)(nM) formula

The target in a further data set is T3, σ-2 receptor (Rattus norvegicus, UniProt Q5U3Y7).
T3 construct: except that rat liver membranes (300-600 μg (protein weight)/200 μl) were used; from tissue; host or cells: rat liver membranes
T3 sequence (Q5U3Y7 1-176): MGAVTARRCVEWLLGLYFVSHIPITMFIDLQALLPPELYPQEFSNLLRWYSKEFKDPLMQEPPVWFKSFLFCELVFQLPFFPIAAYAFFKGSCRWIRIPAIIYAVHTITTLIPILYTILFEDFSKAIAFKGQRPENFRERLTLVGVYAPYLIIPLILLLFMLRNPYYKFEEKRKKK
Put plainly: biochemical. It counts as binding. Here is the method: as §1, §2
3 nM [^3H]DTG ([^3H]-1,3-di-o-tolylguanidine) was used as the radioisotope (RI) for the σ-2 receptor. […] A test was performed in the same procedures as those for the test of affinity for the […] except that rat liver membranes (300-600 μg (protein weight)/200 μl) were used.
as §3

The next data set concerns the target σ-1 receptor (Rattus norvegicus, UniProt Q9R0C9). The data set can be described thus: biochemical. Here is the method:
as §1, §2, §3

The target of another data set is T4, δ-2 receptor (Rattus norvegicus, UniProt Q5U3Y7).
T4 construct: as a result of in vitro experiments using the rat brain
T4 sequence (Q5U3Y7 1-176): T3 sequence (Q5U3Y7 1-176)
The settings on record: in vitro, rat brain; mean±standard deviation; Life Sciences 71 (2002) 1591-1598; read-out: Ki value, affinity for δ-2 receptor; cited from earlier work.

The target in a further data set is T5, δ-1 receptor (Rattus norvegicus, UniProt Q9R0C9).
T5 construct: as a result of in vitro experiments using the rat brain; host or cells: rat brain
T5 sequence (Q9R0C9 whole entry): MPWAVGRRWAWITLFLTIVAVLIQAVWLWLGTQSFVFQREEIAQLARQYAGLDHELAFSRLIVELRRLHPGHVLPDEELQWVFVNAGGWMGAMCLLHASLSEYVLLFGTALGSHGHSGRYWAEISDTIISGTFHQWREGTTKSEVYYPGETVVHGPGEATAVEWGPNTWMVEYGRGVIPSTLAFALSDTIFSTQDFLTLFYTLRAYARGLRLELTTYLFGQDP
The settings on record: in vitro, rat brain; mean±standard deviation; Life Sciences 71 (2002) 1591-1598; read-out: Ki value, affinity for δ-1 receptor; cited from earlier work.

In data set [2] the target is T2, VAChT. Further details: the brain and liver were extirpated from a rat; from tissue; host or cells: rat brain (cerebral membranes). The settings on record: in vitro, rat brain; mean±standard deviation; Life Sciences 71 (2002) 1591-1598; read-out: Ki value, affinity for VAChT; cited from earlier work.
Where [3] appears, read: compared with (−)-o-iodovesamicol.

As usually defined, the IC50 is the midpoint of a concentration-inhibition curve. Lower therefore signals greater potency in that assay. What is called Ki is a dissociation constant, usually derived from enzyme kinetics or from competition with a known ligand. The term melting point denotes the temperature of the solid-liquid transition.

Sequence of σ-1 receptor (Q9R0C9 whole entry): as above

As for `CC(C)=CCN1CCC2(C)c3cc(O)ccc3CC1C2C` (single isomer, unassigned; (+)) [(+)-Pentazocine, (+)-pentazocine], on VAChT in the brain, the “local accumulation of (−)-[^11C]-o-MeVES in the brain, effect of co-administered non-radioactive ligand” value is “not inhibited”; the “Radioactivity level (% ID/g) Blood” value turned out to be 0.12 ± 0.01 % ID/g; the “Radioactivity level (% ID/g) Brain (other than above)” value turned out to be 2.52 ± 0.43 % ID/g; the “Radioactivity level (% ID/g) Cerebellum” value amounted to 2.07 ± 0.31 % ID/g. At VAChT in the brain, the “Radioactivity level (% ID/g) Cerebral cortex” value is on record as 2.72 ± 0.40 % ID/g, the “Radioactivity level (% ID/g) Hippocampus” value amounted to 2.59 ± 0.44 % ID/g, the “Radioactivity level (% ID/g) Medulla oblongata” value was found to be 2.83 ± 0.45 % ID/g and the “Radioactivity level (% ID/g) Striate body” value turned out to be 2.39 ± 0.40 % ID/g. Further, the “Radioactivity level (% ID/g) Brain (whole)” value at VAChT in the brain is reported as 2.52 ± 0.40 % ID/g. On VAChT [1], this molecule had an IC50 of 830 nM and a Ki of 315 ± 121 nM.
With `OC1CCCCC1N1CCC(c2ccccc2)CC1` (single isomer, unassigned; (-)) [(−)-Vesamicol, 2-(4-Phenylpiperidino)-cyclohexanol], at VAChT in the brain, the “local accumulation of (−)-[^11C]-o-MeVES in the brain, effect of co-administered non-radioactive ligand” value is given as “inhibited”; the “Radioactivity level (% ID/g) Blood” value is 0.13 ± 0.01 % ID/g; the “Radioactivity level (% ID/g) Brain (other than above)” value stood at 0.69 ± 0.04 % ID/g; the “Radioactivity level (% ID/g) Cerebellum” value came to 0.62 ± 0.03 % ID/g. On VAChT in the brain, the “Radioactivity level (% ID/g) Cerebral cortex” value is 0.71 ± 0.04 % ID/g, the “Radioactivity level (% ID/g) Hippocampus” value is 0.66 ± 0.05 % ID/g, the “Radioactivity level (% ID/g) Medulla oblongata” value is on record as 0.80 ± 0.08 % ID/g and the “Radioactivity level (% ID/g) Striate body” value came out at 0.72 ± 0.03 % ID/g. The “Radioactivity level (% ID/g) Brain (whole)” value on VAChT in the brain is given as 0.70 ± 0.04 % ID/g. Besides, on VAChT [1], the IC50 came to 13 nM and the affinity, expressed as Ki, was 4.4 ± 0.6 nM. In addition, on σ-2 receptor, the IC50 turned out to be 420 nM and the affinity, expressed as Ki, was 346 ± 37 nM.
In the case of `Cc1ccccc1C1CCN(C2CCCCC2O)CC1` (single isomer, unassigned; (-)) [(−)-o-MeVES, (−)-2-(4-(2-methylphenyl)piperidino)cyclohexanol], the melting point lay within 116 to 118 °C. At σ-1 receptor, this molecule displayed a half-maximal inhibitory concentration (IC50) of 38 nM and a Ki of 33.7 ± 5.9 nM. At VAChT in the brain, the “local accumulation of (−)-[^11C]-o-MeVES in the brain, effect of co-administered non-radioactive ligand” value is given as “inhibited”; the “Radioactivity level (% ID/g) Blood” value stood at 0.14 ± 0.02 % ID/g; the “Radioactivity level (% ID/g) Brain (other than above)” value worked out at 0.63 ± 0.10 % ID/g; the “Radioactivity level (% ID/g) Cerebellum” value was 0.60 ± 0.07 % ID/g. Further, on VAChT in the brain, the “Radioactivity level (% ID/g) Cerebral cortex” value is given as 0.70 ± 0.10 % ID/g, the “Radioactivity level (% ID/g) Hippocampus” value came to 0.71 ± 0.08 % ID/g, the “Radioactivity level (% ID/g) Medulla oblongata” value came out at 0.74 ± 0.09 % ID/g and the “Radioactivity level (% ID/g) Striate body” value worked out at 0.71 ± 0.10 % ID/g. On VAChT in the brain, the “Radioactivity level (% ID/g) Brain (whole)” value came out at 0.68 ± 0.10 % ID/g. At VAChT [1], this molecule had an IC50 of 16 nM and a Ki of 6.7 ± 0.4 nM. For the same molecule, on VAChT [1] (setting [3]), the “6-1 receptor/VAChT ratio of the Ki values” is “higher” and the “6-2 receptor/VAChT ratio of the Ki values” was “higher”. On σ-2 receptor, the IC50 stood at 320 nM and affinity was put at a Ki of 266 ± 28 nM.
With `OC1CCCCC1N1CCC(c2ccccc2I)CC1` (single isomer, unassigned; (-)) [(−)-o-iodovesamicol], the inhibition constant (Ki) on δ-2 receptor is 554 ± 137 nM; at δ-1 receptor it was 62.2 ± 12 nM; at VAChT [2], 15 ± 2.9 nM.
Turning to `COc1ccc(CCN2CCN(CCCc3ccccc3)CC2)cc1OC` [SA4503, 1-(3,4-dimethoxyphenethyl)-4-(3-phenyl-propyl)piperazine], at VAChT in the brain, the “local accumulation of (−)-[^11C]-o-MeVES in the brain, effect of co-administered non-radioactive ligand” value is listed as “inhibited”; the “Radioactivity level (% ID/g) Blood” value was found to be 0.14 ± 0.02 % ID/g; the “Radioactivity level (% ID/g) Brain (other than above)” value was 0.55 ± 0.05 % ID/g; the “Radioactivity level (% ID/g) Cerebellum” value was 0.52 ± 0.07 % ID/g. For the same molecule, at VAChT in the brain, the “Radioactivity level (% ID/g) Cerebral cortex” value was found to be 0.62 ± 0.08 % ID/g, the “Radioactivity level (% ID/g) Hippocampus” value worked out at 0.84 ± 0.18 % ID/g, the “Radioactivity level (% ID/g) Medulla oblongata” value was found to be 0.66 ± 0.08 % ID/g and the “Radioactivity level (% ID/g) Striate body” value stood at 0.61 ± 0.07 % ID/g. Also, the “Radioactivity level (% ID/g) Brain (whole)” value at VAChT in the brain is reported as 0.59 ± 0.07 % ID/g. On VAChT [1], this molecule came in with an IC50 of 120 nM and a Ki of 50.2 ± 7.2 nM. On σ-2 receptor, this molecule yielded an IC50 of 280 nM and a Ki of 242 ± 17 nM.
